Where two headings read alike, the source gives them in different places.
Key:
[1] = target: T1, HIV-1 reverse transcriptase (Human immunodeficiency virus type 1 group M subtype B, UniProt P04585); test: HIV-1 reverse transcriptase assay (viral polymerase inhibition); assay type: biochemical
T1 construct: made in house
Experimental: Standard assays were run at 37° C. and contained: 50 mM Tris, pH b 8.0, 0.5 mM DTT, 8 mM MgCl2, 100 μg/mL BSA, 150 μg/mL gapped calf thymus DNA, 100 μM each dATP, dCTP, dGTP, 10 .parallel.M [^3 H]-dTTP, and 1-5 .parallel.L enzyme in a final volume of 50 .parallel.L. Modified assays for pH dependence inhibition studies with PFA (1) and α--oxo phosphonates (4 and 5) contained 50 mM Hepes, pH 8.2-6.5, 8 mM MgCl2, 100 mM KCl, 100 μg/ml BSA, 0.5 A260 units/ml of poly(rA).(dT)10, 100 μM [^3 H]dTTP, and 1.5 .parallel.L enzyme in a final volume of 50 μL. Samples were processed as described above.

human DNA polymerase γ = target: T2, human DNA polymerase γ (Homo sapiens, UniProt P54098); test: Human DNA polymerase inhibition, gamma; assay type: biochemical; conditions: for remaining activity at 100 µM: read-out: % Control at 100 μM ± S.D.
T2 construct: Mammalian DNA polymerases alpha, beta, gamma, and delta were partially purified from K562 celles; endogenous in cells; host or cells: K562 (chronic myelogenous leukemia tissue culture line)
T2 sequence (P54098 26-1239 limits assumed): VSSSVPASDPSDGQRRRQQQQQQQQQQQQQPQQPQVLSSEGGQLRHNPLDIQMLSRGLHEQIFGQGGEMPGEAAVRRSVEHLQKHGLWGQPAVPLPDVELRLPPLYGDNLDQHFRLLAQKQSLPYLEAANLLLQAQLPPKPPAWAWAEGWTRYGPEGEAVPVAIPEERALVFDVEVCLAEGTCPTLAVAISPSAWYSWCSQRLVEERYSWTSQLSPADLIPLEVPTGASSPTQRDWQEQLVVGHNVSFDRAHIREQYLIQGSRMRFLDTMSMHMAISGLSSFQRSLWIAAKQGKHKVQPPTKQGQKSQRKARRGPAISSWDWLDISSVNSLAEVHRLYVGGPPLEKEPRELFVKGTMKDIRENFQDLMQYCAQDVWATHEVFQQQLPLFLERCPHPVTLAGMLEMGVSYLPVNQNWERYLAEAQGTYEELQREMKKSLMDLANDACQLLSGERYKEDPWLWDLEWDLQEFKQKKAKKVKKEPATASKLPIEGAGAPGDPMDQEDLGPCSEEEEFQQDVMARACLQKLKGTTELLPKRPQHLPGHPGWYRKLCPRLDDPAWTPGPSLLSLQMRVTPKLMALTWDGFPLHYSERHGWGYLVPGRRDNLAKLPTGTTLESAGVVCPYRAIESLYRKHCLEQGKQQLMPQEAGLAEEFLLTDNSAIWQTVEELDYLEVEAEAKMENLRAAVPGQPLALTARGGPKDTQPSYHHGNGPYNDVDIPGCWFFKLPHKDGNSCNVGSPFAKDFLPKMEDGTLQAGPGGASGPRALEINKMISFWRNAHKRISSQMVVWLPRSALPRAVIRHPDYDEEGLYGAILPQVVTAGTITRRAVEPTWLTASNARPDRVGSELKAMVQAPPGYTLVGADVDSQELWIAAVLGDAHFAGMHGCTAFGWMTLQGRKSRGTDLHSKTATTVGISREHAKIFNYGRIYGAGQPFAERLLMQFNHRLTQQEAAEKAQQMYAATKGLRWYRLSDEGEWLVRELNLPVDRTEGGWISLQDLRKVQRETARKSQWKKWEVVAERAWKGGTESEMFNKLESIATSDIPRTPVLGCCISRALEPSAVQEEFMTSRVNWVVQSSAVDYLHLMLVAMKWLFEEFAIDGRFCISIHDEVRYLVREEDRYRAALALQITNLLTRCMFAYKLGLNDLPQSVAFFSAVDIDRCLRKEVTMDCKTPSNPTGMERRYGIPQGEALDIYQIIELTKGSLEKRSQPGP
T2 sequence (Q9UHN1 25-485 partner limits assumed): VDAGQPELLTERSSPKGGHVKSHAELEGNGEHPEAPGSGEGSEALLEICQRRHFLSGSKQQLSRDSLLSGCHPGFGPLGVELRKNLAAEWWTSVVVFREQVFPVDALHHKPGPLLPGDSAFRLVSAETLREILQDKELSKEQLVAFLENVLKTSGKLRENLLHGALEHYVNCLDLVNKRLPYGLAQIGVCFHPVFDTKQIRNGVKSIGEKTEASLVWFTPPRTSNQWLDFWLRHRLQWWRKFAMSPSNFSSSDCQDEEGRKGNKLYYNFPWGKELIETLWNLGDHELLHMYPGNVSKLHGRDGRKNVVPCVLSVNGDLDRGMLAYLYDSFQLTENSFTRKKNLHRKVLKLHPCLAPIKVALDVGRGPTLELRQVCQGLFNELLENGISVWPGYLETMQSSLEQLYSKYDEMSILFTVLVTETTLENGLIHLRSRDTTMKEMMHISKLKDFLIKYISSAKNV
From the text: (§1) Viral DNA polymerases (HSV-1, HSV-2, EBV) were purified by previously published methods (Derce, D. K. F. Bastow, and Y. C. Cheng (1982) J. Boil. Chem. 257:10251-10260; Ostrander, M., and Y. C. Cheng (1980) Biochim. Biophys. Acta 609:232-245; Tan, R. S., A. Datta. and Y. C. Cheng (1982) J. Virol. 44:893-899). These procedures generally included sequential chromatography on DEAE-cellulose. HIV reverse transcriptase was purified by antibody affinity column chromatography as descrbed (Starnes. M. C. and Y. C. Cheng (1989) J. Biol. Chem. 264:7073-7077). The purified enzymes were dialyzed against and stored in 50 mM Tris-HCl (pH 7.5) containing 1 mM each of DTT, EDTA and PMSF plus 30% glycerol. Mammalian DNA polymerases alpha, beta, gamma, and delta were partially purified from K562 celles (chronic myelogenous leukemia tissue culture line). Briefly, washed cell pellets were extracted and passed throgh DEAE-cellulose in the presence of 300 mM KPO4 (pH 7.5) as previously described (Starnes, M. C., and Y. C. Cheng (1987) J. Biol. Chem 282:988-981) to remove DNA. The column flow-through fractions were dialyzed against buffer which contained 50 mM Tris-HCl (pH 7.5), and fractionated on a single-stranded DNA-cellulose column with a 0-1M KCl gradient.
(§2) In accordance with the teaching of the present invention similar enzyme inhibition assays were also conducted with respect to mammalian enzymes, more particularly, human DNA polymerase.

HV-6 polymerase = HV-6 polymerase (Human herpesvirus 6A, UniProt P28857); test: Viral polymerase inhibition, HV-6; assay type: biochemical, Herpes Virus 6
Sequence of HV-6 polymerase (P28857 whole entry): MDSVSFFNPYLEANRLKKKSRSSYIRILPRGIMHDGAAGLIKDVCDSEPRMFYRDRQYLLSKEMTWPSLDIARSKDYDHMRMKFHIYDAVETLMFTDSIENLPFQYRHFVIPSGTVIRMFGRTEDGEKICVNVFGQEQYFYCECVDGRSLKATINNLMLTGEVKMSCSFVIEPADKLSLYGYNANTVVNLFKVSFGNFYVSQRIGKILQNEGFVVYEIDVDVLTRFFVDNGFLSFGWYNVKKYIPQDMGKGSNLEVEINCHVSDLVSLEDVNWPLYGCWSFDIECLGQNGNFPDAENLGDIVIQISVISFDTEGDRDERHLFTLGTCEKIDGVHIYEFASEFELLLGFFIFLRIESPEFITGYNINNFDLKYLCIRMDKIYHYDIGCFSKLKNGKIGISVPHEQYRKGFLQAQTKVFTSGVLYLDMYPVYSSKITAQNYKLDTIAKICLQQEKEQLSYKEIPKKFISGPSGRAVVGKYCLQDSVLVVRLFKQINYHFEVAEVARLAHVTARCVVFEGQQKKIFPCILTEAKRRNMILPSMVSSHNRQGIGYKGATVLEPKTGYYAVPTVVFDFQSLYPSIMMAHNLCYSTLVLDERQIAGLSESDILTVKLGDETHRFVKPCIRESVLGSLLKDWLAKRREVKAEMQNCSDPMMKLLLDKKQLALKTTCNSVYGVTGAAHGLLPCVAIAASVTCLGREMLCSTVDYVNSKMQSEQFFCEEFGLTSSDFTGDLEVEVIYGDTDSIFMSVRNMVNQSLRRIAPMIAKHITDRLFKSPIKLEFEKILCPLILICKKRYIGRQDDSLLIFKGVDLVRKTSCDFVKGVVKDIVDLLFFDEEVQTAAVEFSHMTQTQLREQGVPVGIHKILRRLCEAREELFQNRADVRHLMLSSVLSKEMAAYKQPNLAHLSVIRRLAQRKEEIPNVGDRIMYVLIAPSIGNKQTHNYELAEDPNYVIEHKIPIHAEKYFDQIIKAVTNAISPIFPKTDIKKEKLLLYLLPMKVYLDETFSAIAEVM

HSV-1 = conditions: reported by Hutchinson et al.; cited from earlier work
human DNA polymerase β = target: T3, human DNA polymerase β (Homo sapiens, UniProt P06746); test: Human DNA polymerase inhibition, beta; assay type: biochemical; conditions: for remaining activity at 100 µM: read-out: % Control at 100 μM ± S.D.
T3 construct: Mammalian DNA polymerases alpha, beta, gamma, and delta were partially purified from K562 celles; endogenous in cells; host or cells: K562 (chronic myelogenous leukemia tissue culture line)
From the text: as §1, §2

| Compound | IC50 [1] [µM] | remaining activity at 100 µM (human DNA polymerase γ; Pol γ, 100 μM, "activated" DNA) [%] | IC50 (human DNA polymerase γ; Pol γ, "activated" DNA, read-out: ID50 (the source's name)) [µM] | IC50 (HV-6 polymerase; HV-6, "activated" DNA, read-out: ID50 (the source's name)) [µM] | relative ID50 values with respect to HSV-1 (HSV-1) | remaining activity at 100 µM (human DNA polymerase β; Pol β, 100 μM, "activated" DNA) [%] | IC50 (human DNA polymerase β; Pol β, "activated" DNA, read-out: ID50 (the source's name)) [µM] | IC50 (human DNA polymerase γ) [µM] | remaining activity at 100 µM (human DNA polymerase γ) [%] | IC50 (HV-6 polymerase) [µM] | effectiveness of TPFA relative to PFA (HV-6 polymerase; Herpes Virus 6 enzyme, ratio of ID50 values of Table I) | IC50 (human DNA polymerase β) [µM] | remaining activity at 100 µM (human DNA polymerase β) [%] |
| --- | --- | --- | --- | --- | --- | --- | --- | --- | --- | --- | --- | --- | --- |
| O=C(O)P(=O)(O)O [PFA, phosphonoformic acid] | 0.7 | 55 ± 5 | > 100 | 1 | 12 | 89 ± 8 | > 100 |  |  |  |  |  |  |
| O=C(O)P(O)(O)=S [TPFA, thiophosphonoformic acid] | 1 |  |  |  | 9 |  |  | > 100 | 75 ± 3 | 70 | more than seventy times less effective | > 100 | 91 ± 4 |
